No end group written: not given here.
Legend:
Escherichia coli = assay: Filter paper bacteriostatic circle test, Escherichia coli; type: cell-based; conditions: 20 μL of liquid medicine diluted by 10 times on 6.5 mm filter paper, 37° C., 24 hours
Experimental: (§1) In order to confirm the above conjecture, the application verifies the antibacterial effect of the traditional Chinese medicine concentrated solution prepared in each embodiment, and the method is as follows: • (1) taking Staphylococcus aureus and Escherichia coli grown on ordinary nutrient agar plates, dipping a small number of colonies with an inoculating loop, inoculating colonies into 5 mL of Mueller-Hinton (MH) broth, and performing shake culture at 37° C. for 6 hours at 200 r/min; taking bacterial liquid in logarithmic growth period and diluting the bacterial liquid with sterilized physiological saline until the bacterial content is 1-2×10^8 CFU/ml; diluting with sterilized physiological saline for 1000 times for later use; • (2) making a round filter paper with a diameter of 6.5 mm with a puncher, and dry-heat sterilizing it; first, evenly inoculating the bacterial liquid obtained in step (1) into a nutrient agar culture dish, then attaching the sterilized round filter paper to the surface of agar, transferring 20 μL of liquid medicine (diluted by 10 times) with a micropipette gun, dropping the liquid medicine in the center of the round filter paper, culturing it at 37° C. for 24 hours, and measuring the diameter of the bacteriostatic circle in which different liquid medicines are dropped.

Staphylococcus aureus = assay: Filter paper bacteriostatic circle test, Staphylococcus aureus; type: cell-based; conditions: 20 μL of liquid medicine diluted by 10 times on 6.5 mm filter paper, 37° C., 24 hours
Experimental: as §1

dairy cows with mastitis = assay: Therapeutic effect on dairy cows with mastitis (cure judged by sodium hydroxide curdled milk test); type: in vivo; conditions: ointments applied externally 2 g each time, twice a day for 5 days, control perfused with penicillin 100,000 IU, tested one day after stopping
Text: Fifty dairy cows with mastitis detected by Shanghai Mastitis Test (SMT) are selected from a dairy farm in Hunan Province, of which 20 cows are externally coated with the traditional Chinese medicine ointment for preventing and treating mastitis in dairy cows prepared in embodiment 1 and 20 cows are externally applied with the traditional Chinese medicine ointment for preventing and treating mastitis in dairy cows prepared in comparative example 1, with the dosage of 2 g each time, twice a day for 5 days. The remaining 10 cows are perfused with penicillin 100,000 IU after all the milk is discharged from their breasts, as a control group.
Cure standard: one day after stopping the ointments, if curdled milk is negative by the sodium hydroxide test, the cows are judged to be cured.

Substance	Diameter of bacteriostatic circle of Escherichia coli (mm) (Escherichia coli)	Diameter of bacteriostatic circle of Staphylococcus aureus (mm) (Staphylococcus aureus)	Cure rate (%) (dairy cows with mastitis)	Cows (head) with curdled milk being negative by sodium hydroxide test (dairy cows with mastitis; 20, 20 and 10 cows per group) [head]
FFRKVLKLIRKIWR [1 from Hunan University of Science and Engineering, preparation per CN111529683A]	14.7	15.3		
penicillin [Control group]			80	8
